Reference: publication PMC11859928, “Design, Synthesis, and Antiproliferative Activity of Novel Indole/1,2,4-Triazole Hybrids as Tubulin Polymerization Inhibitors” (Pharmaceuticals, 2025)
Read-outs that look alike come from different tables or passages of the source.

Columns and labels:
MDA-MB-435 = assay: NCI five-dose assay; assay type: cell-based, human; settings: MDA-MB-435, five dose levels
NCI-H23 = assay: NCI five-dose assay; assay type: cell-based, human; settings: NCI-H23, five dose levels
EKVX = assay: NCI five-dose assay; assay type: cell-based, human; settings: five dose levels
HCT-116 = assay: NCI five-dose assay; assay type: cell-based, human; settings: HCT-116, five dose levels
HOP-62 = assay: NCI five-dose assay; assay type: cell-based, human; settings: HOP-62, five dose levels
UO-31 = assay: NCI five-dose assay; assay type: cell-based, human; settings: UO-31, five dose levels
NCI-H322M = assay: NCI five-dose assay; assay type: cell-based, human; settings: five dose levels
NCI-H522 = assay: NCI five-dose assay; assay type: cell-based, human; settings: NCI-H522, five dose levels
NCI-H460 = assay: NCI five-dose assay; assay type: cell-based, human; settings: NCI-H460, five dose levels
SK-MEL-2 = assay: NCI five-dose assay; assay type: cell-based, human; settings: Homo sapiens, SK-MEL-2, five dose levels
Prostate cancer subpanel = assay: NCI five-dose assay, subpanel mean; assay type: cell-based, human
NCI-H226 = assay: NCI five-dose assay; assay type: cell-based, human; settings: Homo sapiens, NCI-H226, five dose levels
OVCAR-4 = assay: NCI five-dose assay; assay type: cell-based, human; settings: OVCAR-4, five dose levels
BT-549 = assay: NCI five-dose assay; assay type: cell-based, human; settings: BT-549, five dose levels
SK-OV-3 = assay: NCI five-dose assay; assay type: cell-based, human; settings: Homo sapiens, SK-OV-3, five dose levels
CCRF-CEM = assay: NCI five-dose assay; assay type: cell-based, human; settings: Homo sapiens, five dose levels
SF-295 = assay: NCI five-dose assay; assay type: cell-based, human; settings: SF-295, five dose levels
Breast cancer subpanel = assay: NCI five-dose assay, subpanel mean; assay type: cell-based, human
A498 = assay: NCI five-dose assay; assay type: cell-based, human; settings: A498, five dose levels
HL-60(TB) = assay: NCI five-dose assay; assay type: cell-based, human; settings: five dose levels
LOX IMVI = assay: NCI five-dose assay; assay type: cell-based, human; settings: five dose levels
786-0 = assay: NCI five-dose assay; assay type: cell-based, human; settings: 786-0, five dose levels
DU-145 = assay: NCI five-dose assay; assay type: cell-based, human; settings: DU-145, five dose levels
SNB-75 = assay: NCI five-dose assay; assay type: cell-based, human; settings: SNB-75, five dose levels
tubulin = molecular target: T1, tubulin (Sus scrofa, UniProt P02550+P02554); assay: Tubulin polymerization inhibitory assay; assay type: biochemical
T1 construct: purchased Cytoskeleton Inc., Denver, CO, USA
T1 sequence (P02554 whole entry): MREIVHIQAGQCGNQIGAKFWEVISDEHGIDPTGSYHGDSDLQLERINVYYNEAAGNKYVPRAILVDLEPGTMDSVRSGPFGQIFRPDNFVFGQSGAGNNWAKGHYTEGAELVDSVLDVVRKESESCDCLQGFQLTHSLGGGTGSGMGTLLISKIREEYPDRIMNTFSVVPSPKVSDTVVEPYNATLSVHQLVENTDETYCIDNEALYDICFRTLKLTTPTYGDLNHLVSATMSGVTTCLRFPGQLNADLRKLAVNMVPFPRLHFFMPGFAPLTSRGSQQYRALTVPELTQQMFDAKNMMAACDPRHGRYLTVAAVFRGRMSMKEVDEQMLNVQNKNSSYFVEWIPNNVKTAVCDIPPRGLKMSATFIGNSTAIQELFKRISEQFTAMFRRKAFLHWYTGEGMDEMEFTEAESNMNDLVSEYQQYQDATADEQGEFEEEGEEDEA
T1 sequence (P02550 whole entry): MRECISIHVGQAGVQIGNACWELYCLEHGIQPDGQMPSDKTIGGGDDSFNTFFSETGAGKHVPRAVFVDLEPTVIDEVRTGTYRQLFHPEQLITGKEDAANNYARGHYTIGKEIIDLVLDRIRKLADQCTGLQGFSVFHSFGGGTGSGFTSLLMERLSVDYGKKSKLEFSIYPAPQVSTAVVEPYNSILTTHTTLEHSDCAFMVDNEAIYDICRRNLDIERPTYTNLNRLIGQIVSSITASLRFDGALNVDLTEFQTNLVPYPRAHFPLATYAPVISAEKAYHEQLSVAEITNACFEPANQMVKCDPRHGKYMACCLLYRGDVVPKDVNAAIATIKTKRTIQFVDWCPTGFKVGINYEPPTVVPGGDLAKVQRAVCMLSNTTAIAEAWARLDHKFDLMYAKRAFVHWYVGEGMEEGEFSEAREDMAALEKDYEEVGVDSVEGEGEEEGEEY
Description: The substances’ effects on tubulin polymerization were examined using the Tubulin Polymerization Assay Kit (Cytoskeleton Inc., Denver, CO, USA) according to the supplier’s instructions, with details described in Appendix A..
The activity of compounds on tubulin polymerization was investigated using the Tubulin Polymerization Assay Kit (Cytoskeleton Inc., Denver, CO, USA), which works via fluorescent reporter enhancement. […] Docetaxel and vincristine (Apoteket AB, Stockholm, Sweden) served as positive stabilizing and destabilizing controls. Both were used at a 3 µM concentration in PBS.

[1] = Homo sapiens, read-out: GI50 Conc. per Cell Lines
[2] = Homo sapiens, read-out: LC50 (the source's name)
[3] = read-out: GI50 Conc. per Cell Lines
[4] = read-out: LC50 (the source's name)

Question: Which results are given for `O/N=C(\CSc1nnc(-c2c[nH]c3ccccc23)n1-c1ccccc1)c1ccc(Cl)cc1` [Compound 7j, (Z)-2-((5-(1H-Indol-3-yl)-4-phenyl-4H-1,2,4-triazol-3-yl)thio)-1-(4-chlorophenyl) Ethanone Oxime]?
Answer: GI50 (MDA-MB-435; [1]): 1.74 µM; CC50 (MDA-MB-435; [2]): 60.5 µM; TGI Conc. per Cell Lines (MDA-MB-435): 3.41 µM; GI50 (NCI-H23; [1]): 6.52 µM; CC50 (NCI-H23; [2]): > 100 µM; TGI Conc. per Cell Lines (NCI-H23): >100 µM; GI50 (EKVX; [1]): 3.21 µM; CC50 (EKVX; [2]): > 100 µM; TGI Conc. per Cell Lines (EKVX): 19.2 µM; TGI Conc. per Cell Lines (HCT-116): 13.7 µM; GI50 (HCT-116; [1]): 2.92 µM; CC50 (HCT-116; [2]): > 100 µM; TGI Conc. per Cell Lines (HOP-62): 3.65 µM; GI50 (HOP-62; [1]): 1.74 µM; GI50 (UO-31; [1]): 2.88 µM; CC50 (UO-31; [2]): 71.1 µM; TGI Conc. per Cell Lines (UO-31): 15.7 µM; GI50 (NCI-H322M; [1]): 5.71 µM; CC50 (NCI-H322M; [2]): > 100 µM; TGI Conc. per Cell Lines (NCI-H322M): 7.33 µM; GI50 (NCI-H522; [1]): 3.11 µM; CC50 (NCI-H522; [2]): 81.7 µM; TGI Conc. per Cell Lines (NCI-H522): 12.5 µM; GI50 (NCI-H460; [1]): 3.33 µM; CC50 (NCI-H460; [2]): > 100 µM; TGI Conc. per Cell Lines (NCI-H460): 15.7 µM; GI50 (SK-MEL-2; [3]): 3.64 µM; CC50 (SK-MEL-2; [4]): > 100 µM; GI50 (Prostate cancer subpanel; Homo sapiens, Prostate cancer, average sensitivity of all cell lines of the subpanel, read-out: GI50 Subpanel MID b): 2.45 µM; GI50 Selectivity Ratio (MID a/MID b) (Prostate cancer subpanel; Prostate cancer subpanel): 1.48; GI50 (NCI-H226; [3]): 3.99 µM; CC50 (NCI-H226; [4]): 61.8 µM; LC50 (OVCAR-4; Homo sapiens): > 100 µM; GI50 (OVCAR-4; [1]): 1.96 µM; TGI Conc. per Cell Lines (OVCAR-4): 4.32 µM; TGI Conc. per Cell Lines (BT-549): 11.1 µM; GI50 (BT-549; [1]): 3.71 µM; CC50 (BT-549; [2]): 6.28 µM; GI50 (SK-OV-3; [3]): 3.38 µM; CC50 (SK-OV-3; [4]): 71.4 µM; GI50 (CCRF-CEM; [3]): 2.85 µM; CC50 (CCRF-CEM; [4]): > 100 µM; GI50 (SF-295; [1]): 3.11 µM; CC50 (SF-295; [2]): > 100 µM; TGI Conc. per Cell Lines (SF-295): 13.4 µM; GI50 Selectivity Ratio (MID a/MID b) (Breast cancer subpanel; Breast cancer subpanel): 1.24; GI50 (Breast cancer subpanel; Homo sapiens, Breast cancer, average sensitivity of all cell lines of the subpanel, read-out: GI50 Subpanel MID b): 2.93 µM; TGI Conc. per Cell Lines (A498): 65.8 µM; LC50 (A498; Homo sapiens): 88.6 µM; GI50 (A498; [1]): 15.4 µM; GI50 (HL-60(TB); [1]): 2.17 µM; CC50 (HL-60(TB); [2]): > 100 µM; TGI Conc. per Cell Lines (HL-60(TB)): 6.34 µM; GI50 (LOX IMVI; [1]): 1.72 µM; CC50 (LOX IMVI; [2]): 17.4 µM; TGI Conc. per Cell Lines (LOX IMVI): 3.12 µM; TGI Conc. per Cell Lines (786-0): >100 µM; LC50 (50% lethal concentration) (786-0; Homo sapiens): 93.5 µM; GI50 (786-0; [1]): 7.29 µM; TGI Conc. per Cell Lines (DU-145): 6.32 µM; GI50 (DU-145; [1]): 2.59 µM; CC50 (DU-145; [2]): > 100 µM; GI50 (SNB-75; [1]): 1.68 µM; CC50 (SNB-75; [2]): > 100 µM; TGI Conc. per Cell Lines (SNB-75): 5.80 µM; %inhibition (tubulin; conc 0.01 (unit not given; IC50 from this curve in µg/ml)): 5.23%; %inhibition (tubulin; conc 0.1 (unit not given; IC50 from this curve in µg/ml)): 15.6%; %inhibition (tubulin; conc 1 (unit not given; IC50 from this curve in µg/ml)): 34.8%; %inhibition (tubulin; conc 10 (unit not given; IC50 from this curve in µg/ml)): 58.9%; %inhibition (tubulin; conc 100 (unit not given; IC50 from this curve in µg/ml)): 87.6%; IC50 (tubulin; read-out: Tub. IC50±SD (converted)): 6.26 µM; IC50 (tubulin; read-out: Tubulin Inhibitory Effect, IC50): 6.26 ± 0.15 µM
